{"source": "patent US20120006538A1", "about": "“METHOD FOR PRE-TREATMENT OF SUBTERRANEAN SITES ADJACENT TO WATER INJECTION WELLS” (E. I. DU PONT DE NEMOURS AND COMPANY, priority 2010, published 2012)", "key": {"[1]": {"assay": "Amine concentration in brine #2 over amine-coated core sand, titration with 1N HCl (Example 2)", "assay_type": "physicochemical", "conditions": "core sand in brine #2", "description": "Helium was used as the carrier gas.\n38 milligrams (mg) of N N-Dimethyl-1-Dodecanamine (hereafter referred to as “the amine”) was added to 10.210 gr of Pentane. This solution was added to 10.1845 gr of specific sand layers (Oa and Ob) obtained from the Schrader Bluff formation of the Milne Point Unit of the Alaskan North slope. The oil content of the sand was first removed using a mixture of methanol and toluene (50/50, volume/volume) as solvent washes. The solvent mixture was subsequently evaporated off the core sand to produce clean, dry, flowable core sand. This sand was mixed with the amine and pentane solution to produce a slurry. This slurry was thoroughly mixed and the pentane was evaporated off leaving the amine on the sand (hereafter referred to as sand/amine mixture). 100 ml of brine #2 (Table 3) was added to the sand/amine mixture to create the sand/amine/brine mixture. […] The fact that the amine was not detected underlined its strong binding to the sand particles. […] The data underlines the remarkable efficiency of an acid at ionizing and removing the amine from the sand."}, "[2]": {"assay": "Amine concentration in brine #2 over amine-coated core sand, titration with 10% nitric acid (Example 4)", "conditions": "titration with 10 wt % nitric acid, core sand in brine #2", "description": "Concentration of amines, in media and water, were analyzed by gas chromatography (GC). An Agilent Model 5890 (Agilent, Wilmington, Del.), GC equipped with a […] and a split/splitless injector, a DB-FFAP column (30 meter length×0.32 millimeter (mm) depth×0.25 micrometer particle size). […] The system was calibrated using a sample of N,N-Dimethyl-1-Dodecaneamine (Aldrich). Helium was used as the carrier gas. A temperature gradient of 50 degrees Celsius (° C.) to 250° C. at 30° C. increase per minute (min) was used. Retention times (in minutes, min) for various chemicals of interest included: N,N-Dimethyl-1-Dodecaneamine (8.08 min); N,N-Dimethyl-1-Tetradecaneamine (8.85 min); N,N-Dimethyl-1-Hexadecane-amine (9.90 min); N,N-Dimethyl-1-Octadecaneamine (10.26 min) and N-Methyl,N-Benzyl)-1-Tetradecaneamine (11.40 min).\nThe procedure outlined in Example 2 was used to produce the sand/amine mixture except that 519 mg of the amine, 10 gr of Pentane. and 60.062 gr of sand from the Oa and Ob layers were used. 29.065 gr of this sand/amine mixture was added to 100 ml of brine #2 (Table 3) to create the sand/amine/brine mixture. […] 0.1 ml of 10 weight percent (wt %) nitric acid in water was added to this solution, and the pH and the amine concentration were measured again."}, "[3]": {"assay": "Amine concentration in brine #2 over amine-coated core sand, titration with 10% acetic acid (Example 5)", "conditions": "titration with 10 wt % acetic acid, core sand in brine #2"}}}
{"compound": "CCCCCCCCCCCCN(C)C", "note": "[N N-Dimethyl-1-Dodecanamine]", "values": [{"measurement": "pH of complete ionization and solubilization of the amine in the water", "setting": "[1]", "value": "< 6.0"}, {"measurement": "pH of complete ionization and solubilization in the water of the amine", "setting": "[2]", "value": "< 6.7"}, {"measurement": "pH of complete ionization and solubilization in the water of the amine", "setting": "[3]", "value": "< 6.7"}]}
